ChEMBL document CHEMBL4033769, “Simple Tetrahydroisoquinolines Are Potent and Selective Kappa Opioid Receptor Antagonists” (ACS Med Chem Lett, 2017)
The source made the active and inactive calls. The calls are words filed in the database; no cut-off is given here.

Columns and labels:
[1] = biological target: Mu-type opioid receptor (Homo sapiens) (UniProt P35372); experiment: Agonist activity at human mu-opioid receptor expressed in CHO cell membranes assessed as induction of [35S]GTPgammaS binding at 10 uM after 60 mins by scintillation counting method; type: functional
[2] = biological target: Kappa-type opioid receptor (Homo sapiens) (UniProt P41145); experiment: Agonist activity at human kappa-opioid receptor expressed in CHO cell membranes assessed as induction of [35S]GTPgammaS binding at 10 uM after 60 mins by scintillation counting method; type: functional
[3] = biological target: Delta-type opioid receptor (Homo sapiens) (UniProt P41143); experiment: Agonist activity at human delta-opioid receptor expressed in CHO cell membranes assessed as induction of [35S]GTPgammaS binding at 10 uM after 60 mins by scintillation counting method; type: functional
[4] = biological target: Delta-type opioid receptor (Homo sapiens) (UniProt P41143)
Description: Antagonist activity at human delta-opioid receptor expressed in CHO cell membranes assessed as inhibition of DPDPE agonist-induced [35S]GTPgammaS binding after 60 mins by scintillation counting method

Chain of Delta-type opioid receptor (Homo sapiens) (P41143 whole entry): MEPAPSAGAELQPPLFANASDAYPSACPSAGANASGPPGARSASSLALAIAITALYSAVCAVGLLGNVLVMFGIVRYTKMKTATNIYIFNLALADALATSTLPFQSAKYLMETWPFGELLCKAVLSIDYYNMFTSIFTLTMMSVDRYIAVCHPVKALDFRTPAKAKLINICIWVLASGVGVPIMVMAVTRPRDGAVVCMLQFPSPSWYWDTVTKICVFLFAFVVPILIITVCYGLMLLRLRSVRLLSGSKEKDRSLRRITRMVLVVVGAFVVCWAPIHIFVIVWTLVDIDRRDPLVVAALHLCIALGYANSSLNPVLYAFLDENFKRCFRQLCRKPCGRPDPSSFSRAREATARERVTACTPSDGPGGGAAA
Chain of Kappa-type opioid receptor (Homo sapiens) (P41145 whole entry): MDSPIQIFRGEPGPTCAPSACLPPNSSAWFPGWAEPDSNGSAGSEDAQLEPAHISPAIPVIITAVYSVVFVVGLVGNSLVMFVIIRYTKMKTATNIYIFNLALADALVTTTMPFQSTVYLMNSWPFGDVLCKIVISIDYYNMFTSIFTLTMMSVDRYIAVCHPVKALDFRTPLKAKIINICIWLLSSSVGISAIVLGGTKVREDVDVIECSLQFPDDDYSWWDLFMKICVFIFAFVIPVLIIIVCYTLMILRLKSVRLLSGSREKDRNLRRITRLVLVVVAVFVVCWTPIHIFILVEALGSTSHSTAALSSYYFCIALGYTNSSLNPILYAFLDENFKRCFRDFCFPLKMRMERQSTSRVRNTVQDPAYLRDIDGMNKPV
Chain of Mu-type opioid receptor (Homo sapiens) (P35372 whole entry): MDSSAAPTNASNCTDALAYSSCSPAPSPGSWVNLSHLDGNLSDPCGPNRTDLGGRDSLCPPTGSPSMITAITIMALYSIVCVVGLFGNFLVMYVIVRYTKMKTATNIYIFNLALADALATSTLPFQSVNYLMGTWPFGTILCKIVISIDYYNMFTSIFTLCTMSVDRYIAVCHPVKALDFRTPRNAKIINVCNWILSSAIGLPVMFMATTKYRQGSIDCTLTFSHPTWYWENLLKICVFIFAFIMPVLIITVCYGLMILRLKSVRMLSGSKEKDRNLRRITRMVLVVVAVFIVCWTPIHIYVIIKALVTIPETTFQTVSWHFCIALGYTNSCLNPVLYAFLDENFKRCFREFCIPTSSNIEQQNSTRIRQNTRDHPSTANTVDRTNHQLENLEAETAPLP

Question: With `CC(C)[C@@H](CN1CCCCC1)NC(=O)[C@H]1Cc2ccc(O)cc2CN1` as the compound, how does the Activity [1] read?
Answer: The Activity was “inactive”.

Question: And the Activity [2]?
Answer: Its Activity is “inactive”.

Question: And the Activity [3]?
Answer: The Activity was “inactive”.

Question: `CC(C)[C@@H](CC1CCCCC1)NC(=O)[C@H]1Cc2ccc(O)cc2CN1` was tested. Which Activity [1] did it give?
Answer: Its Activity is “inactive”.

Question: What about the Activity [2] of the same compound?
Answer: Its Activity is “inactive”.

Question: And the Ke [4]?
Answer: Its Ke is 640 nM.

Question: What about the Activity [3] of the same compound?
Answer: Its Activity is “inactive”.
